Source: patent US8236756B2, “Prodrugs cleavable by CD26” (Consejo Superior de Investigaciones Clentificas (CSIC), priority 2003, dated 2012)

Tests used:
purified CD26 = target: T1, purified CD26 (Homo sapiens, UniProt P27487); assay: Conversion of peptide prodrugs to parent compound by purified CD26 (HPLC); format: biochemical; conditions: for Conversion % to parent compound by purified CD26, 1 h / Conversion % to parent compound by purified CD26, 4 h / Conversion % to parent compound by purified CD26, 24 h: Table 1
T1 construct: made in house
Description: To reveal whether CD26 recognizes such synthetic di/tripeptide derivatives of lipophilic nucleoside analogues as a substrate, 50 μM CAM-405 or CAM-431 was exposed to 5.7 mUnits of purified CD26, and the conversion of CAM-405 or CAM-431 to respectively CAM-212 or CAM-403 (Val-NAP-TSAO) was recorded in function of incubation time by HPLC analysis. […] Within the first 10 min of the reaction, at least 20% of CAM-405 had been converted to CAM-212, fifty percent of the TSAO dipeptide derivative was converted to CAM-212 within 30 min of the reaction and ˜67% of CAM-405 was hydrolyse after 60 min. Thus, the reaction rate started already to slow down after the first 10 min of drug exposure (FIG. 2). Most likely, the release of the reaction product Val-Pro dose-dependently feed-back inhibited the CD26-catalysed dipeptidyl-peptidase reaction. […] Thus, in the presence of 50 μM CAM-405, hydrolysis of 50% of CAM-405 to CAM-212 results in the appearance of 25 μM Val-Pro, that is a concentration that (feed-back) inhibits the CD26 reaction by ˜50%. These findings explain why the CD26-catalysed reaction levels-off shortly after the start of the exposure of the drug to CD26. […] Thus, a further level of modulation of the rate of prodrug release can be introduced by choosing a dipeptide moiety that competes for the active site of CD26, until the dipeptide has diffused from the tissue wherein CD26 is present. The inhibitory activity of any dipeptide can be evaluated by the above mentioned assay.
The conversion rate in function of time is given in Table 1 for NAP-TSAO-dipeptides where the dipeptide consists of: Val-Pro, Val-D-Pro, Asp-Pro, Lys-Pro, Tyr-Pro, Gly-Pro, Val-4-hydroxyPro, Gly-3,4-dihydroxyPro, but also Val-Gly, Val-Ala, Val-Leu and Val-Phe. It is clear that the conversion rate to the parent NAP-TSAO differs depending the nature of the dipeptide. Also, when the terminal amine of the dipeptide has been blocked by a lipophilic group (i.e. methyl, Z or Fmoc), the prodrug looses measurable substrate activity for CD26.
The conversion rate in function of time is given in Table 2 for tetrapeptide NAP-TSAO compounds where the tetrapeptide consists of: Val-Pro-Val-Pro [SEQ ID no:6] (CAM 467), Val-Ala-Val-Pro [SEQ ID no:7] (CAM 473) or Lys-Pro-Asp-Pro [SEQ ID no:8] (CAM 477). […] Only traces of dipeptide prodrug (CAM 405) is seen as intermediate in the conversion of the tetrapeptide CAM 473 to NAP-TSAO.
All enzyme activity assays were performed in Eppendorf tubes on a heating block at 37° C. To each tube were added 32 μl CD26 (at a final concentration of 1.5 milliUnits) or 10 μl foetal bovine serum (BS) (final concentration: 2.5% BS in PBS; preheated at 56° C. for 30 min) or 10 μl human serum (HS) (final concentration: 2.5% HS in PBS), 40 μl of appropriate concentrations of inhibitor (Diprotin A) solution in PBS (for the exact concentrations, see the legend to FIG. 5), CAM-405 (the substrate of the reaction) at […] (final concentration) and PBS to reach a total volume of 400 μl. The pH of the reaction mixture was 7.5, which is virtually identical to the physiological pH of plasma. The reaction was started by the addition of the enzyme or serum and carried out at 37° C. After 5 hr, 100 μl reaction mixture was taken from the Eppendorf tube and added to 200 μl cold methanol to precipitate the proteins. After 10 min standing on ice, the contents of the tubes were centrifuged and the supernatants analysed by HPLC on a reverse phase column (RP-8, Merck Laboratories). CAM-405 was separated from CAM-212 (the product of the reaction) by a gradient of 50 mM sodium phosphate+5 mM heptane sulfonic acid pH 3.2 (Buffer A) and acetonitrile (Buffer B) as follows: Buffer A: 98%+2% Buffer B, 2 min; linear gradient to 20% Buffer. […]

[1] = Conversion of prodrugs to parent compound by human serum diluted in PBS; format: in vitro ADME; conditions: 50 μM; 20% human serum in PBS (FIG. 6)
Description: Human and bovine serum were incubated for 3 hr, 6 hr and/or 24 hr at 37° C. in the presence of 50 μM CAM-405. The sera were diluted in PBS at a final concentration of 0.5, 1, 2.5 or 5%. […] The longer the incubation time, and the higher the serum concentration used, the faster the conversion of CAM-405 to CAM-212 occurred (FIG. 4). As also noted for CD26, HS- and BS-catalysed reaction slowed down in function of time, and was not linearly proportional with serum concentration (FIG. 4). These findings provide again evidence for a pronounced feed-back inhibition of dipeptidyl-peptidase activity in human and bovine serum by the released Val-Pro dipeptide. HS was more efficient in converting CAM-405 to CAM-212 than BS (FIG. 4). Since 1% HS is able to hydrolyse ˜20% of 50 μM CAM-405 within 3 hrs of incubation, it could be calculated that undiluted serum would have been able to convert this prodrug amount to its parent compound at a hundred fold higher speed, that is, within 1.8 min, provided that no feed-back inhibition would have occurred (as expected in the intact organism where release of Pro-Val would immediately result in disappearance from the plasma due to several mechanisms including organ uptake, renal excretion, etc.).
Only a very limited amount of NAP-TSAO (but not D-Pro-NAP-TSAO) had been detected (FIG. 6).
Ten percent BS or HS converted 40 to 70% of PI-2 to PI-1 in one hour (FIG. 10). Two percent BS and HS converted PI-2 to PI-1 by 8% and 25%, respectively. After 4 hrs, 35% and 95% of compound was hydrolyzed by BS and HS, respectively (FIG. 11).
The TSAO derivatives depicted in FIG. 1 can be synthesised as described below. GlyPro-pNA (GP-pNA), Diprotin A and Val-Pro were purchased from Sigma-Aldrich (Bornem, Belgium). CD26 was purified as described before [De Meester et al. J. Immunol. Methods (1996), 189: 99-105]. Foetal bovine serum (FBS) was obtained from Integro (Dieren, The Netherlands). Human serum represented a pooled serum that was derived from 10 healthy volunteers (blood donors). Human lymphocyte CEM cells were derived from the ATCC (Rockville, Md.).

[2] = Solubility in Milli-Q water; format: physicochemical; conditions: 1 mg/ml in Milli-Q water; 2 × 10 sec sonication, 4 days shaking, room temperature; centrifugation, U.V. spectrum
Excerpt: It is also clear that the nature of the dipeptide moiety present on NAP-TSAO markedly affect prodrug solubility in water.

T1 sequence (P27487 whole entry): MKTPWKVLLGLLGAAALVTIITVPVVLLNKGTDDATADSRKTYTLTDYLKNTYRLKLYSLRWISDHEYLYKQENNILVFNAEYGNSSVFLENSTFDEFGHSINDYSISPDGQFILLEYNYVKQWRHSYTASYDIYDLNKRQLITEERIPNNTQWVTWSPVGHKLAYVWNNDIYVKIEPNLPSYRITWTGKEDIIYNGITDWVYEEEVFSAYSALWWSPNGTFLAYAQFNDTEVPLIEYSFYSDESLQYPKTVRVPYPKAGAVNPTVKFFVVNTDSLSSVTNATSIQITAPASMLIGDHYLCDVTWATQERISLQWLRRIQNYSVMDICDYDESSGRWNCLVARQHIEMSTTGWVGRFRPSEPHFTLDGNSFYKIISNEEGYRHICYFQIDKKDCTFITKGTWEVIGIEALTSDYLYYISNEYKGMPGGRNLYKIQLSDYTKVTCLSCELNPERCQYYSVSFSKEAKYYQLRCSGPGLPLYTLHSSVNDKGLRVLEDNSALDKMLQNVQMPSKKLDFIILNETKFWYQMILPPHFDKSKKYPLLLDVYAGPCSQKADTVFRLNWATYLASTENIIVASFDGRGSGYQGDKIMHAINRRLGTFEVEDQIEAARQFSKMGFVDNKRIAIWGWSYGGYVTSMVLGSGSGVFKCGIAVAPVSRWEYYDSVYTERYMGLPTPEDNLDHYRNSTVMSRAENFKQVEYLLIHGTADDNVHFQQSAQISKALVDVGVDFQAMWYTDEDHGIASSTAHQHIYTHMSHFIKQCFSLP

Row | Structure (SMILES) | Conversion % to parent compound by purified CD26, 1 h (purified CD26; purified CD26 1.5 mUnits, 1 h) | Conversion % to parent compound by purified CD26, 4 h (purified CD26; purified CD26 1.5 mUnits, 4 h) | Conversion % to parent compound by purified CD26, 24 h (purified CD26; purified CD26 1.5 mUnits, 24 h) | Conversion by 20% human serum, in words [1] | Spectrum (~265 nm) [2] | Conversion / substrate activity with purified CD26, in words (purified CD26; purified CD26) | % conversion to parent compound by purified CD26, 1 h (purified CD26; Table 2, purified CD26 1.5 mUnits, 1 h) | % conversion to parent compound by purified CD26, 4 h (purified CD26; Table 2, purified CD26 1.5 mUnits, 4 h) | % conversion to parent compound by purified CD26, 24 h (purified CD26; Table 2, purified CD26 1.5 mUnits, 24 h)
1 | Cc1cn(C2OC(CO[Si](C)(C)C(C)(C)C)C3(OS(=O)(=O)C=C3N)C2O[Si](C)(C)C(C)(C)C)c(=O)n(CCCNC(=O)CNC(=O)[C@@H](N)C(C)C)c1=O (stereo partly drawn) [CAM-422, H-Val-Gly-NAP-TSAO] | 0% | 0% | 0% | efficiently (but solely) converted to Gly-NAP-TSAO | 1.886 | – | – | – | –
2 | Cc1cn(C2OC(CO[Si](C)(C)C(C)(C)C)C3(OS(=O)(=O)C=C3N)C2O[Si](C)(C)C(C)(C)C)c(=O)n(CCCNC(=O)C(NC(=O)C2CCCN2C(=O)C(N)C(C)C)C(C)C)c1=O (stereo not drawn) [CAM-431, H-Val-Pro-Val-NAP-TSAO] | – | 51% | ~70% | very efficiently converted predominantly to Val-TSAO | – | hydrolyse by CD26 | – | – | –
3 | Cc1cn([C@@H]2O[C@H](CO[Si](C)(C)C(C)(C)C)[C@@]3(OS(=O)(=O)C=C3N)[C@H]2O[Si](C)(C)C(C)(C)C)c(=O)n(C)c1=O [m-3T-TSAO, 3-methyl-TSAO-T, reference compound] | – | – | – | – | 0.100 | – | – | – | –
4 | Cc1cn(C2OC(CO[Si](C)(C)C(C)(C)C)C3(OS(=O)(=O)C=C3N)C2O[Si](C)(C)C(C)(C)C)c(=O)n(CCCNC(=O)C(CC(C)C)NC(=O)C(N)C(C)C)c1=O (stereo not drawn) [CAM-426, H-Val-Leu-NAP-TSAO] | 0% | 0% | 0% | convert to a limited extent | – | – | – | – | –
5 | Cc1cn(C2OC(CO[Si](C)(C)C(C)(C)C)C3(OS(=O)(=O)C=C3N)C2O[Si](C)(C)C(C)(C)C)c(=O)n(CCCNC(=O)C(Cc2ccccc2)NC(=O)C(N)C(C)C)c1=O (stereo not drawn) [CAM-428, H-Val-Phe-NAP-TSAO] | 0% | 0% | 0% | convert to a limited extent | – | – | – | – | –
6 | Cc1cn(C2OC(CO[Si](C)(C)C(C)(C)C)C3(OS(=O)(=O)C=C3N)C2O[Si](C)(C)C(C)(C)C)c(=O)n(CCCNC(=O)[C@H](C)NC(=O)[C@@H](N)C(C)C)c1=O (stereo partly drawn) [CAM-424, H-Val-Ala-NAP-TSAO] | 0% | 6.5% | 35% | – | 0.650 | – | 0% | 6.5% | 35%
7 | Cc1cn(C2OC(CO[Si](C)(C)C(C)(C)C)C3(OS(=O)(=O)C=C3N)C2O[Si](C)(C)C(C)(C)C)c(=O)n(CCCNC(=O)[C@H]2CCCN2C(=O)[C@@H](N)C(C)C)c1=O (stereo partly drawn) [CAM-430, H-Val-D-Pro-NAP-TSAO] | 0% | ~1% | ~2% | very stable | 3.220 | – | – | – | –
